# Organism: Rattus norvegicus
# Test: DrugMatrix - Regimen: Daily Repeat
# Type: toxicity, organism-based, Sprague-Dawley
# Set-up: regimen Daily Repeat, gender Male, age 6-8 weeks
# Details: in vivo, po, route oral GAVAGE, vehicle .5 % CMC; for ABSOLUTE BASOPHIL / ABSOLUTE EOSINOPHIL / ABSOLUTE LYMPHOCYTE / ABSOLUTE MONOCYTE / ABSOLUTE SEGMENTED NEUTROPHIL / BASOPHIL / EOSINOPHIL / ERYTHROCYTE COUNT / HEMATOCRIT / HEMOGLOBIN / LEUKOCYTE COUNT / LYMPHOCYTE / MEAN CORPUSCULAR HEMOGLOBIN / MEAN CORPUSCULAR HEMOGLOBIN CONCENTRATION / MEAN CORPUSCULAR VOLUME / MONOCYTE / NEUTROPHIL / NUCLEATED RED BLOOD CELLS / PLATELET COUNT: tissue Blood; for ALANINE AMINOTRANSFERASE / ALBUMIN / ALKALINE PHOSPHATASE / ASPARTATE AMINOTRANSFERASE / BLOOD UREA NITROGEN / CARBON DIOXIDE / CHLORIDE / CHOLESTEROL / CREATINE PHOSPHOKINASE / CREATININE / GLUCOSE / LACTATE DEHYDROGENASE / LIPASE / PHOSPHORUS / POTASSIUM / SODIUM / TOTAL BILIRUBIN / TOTAL PROTEIN / URIC ACID: tissue Plasma
# [1] = 0 mg/kg, 72 h, dose level Control, time 3 day
# [2] = 0 mg/kg, 120 h, dose level Control, time 5 day
# [3] = 55 mg/kg, 72 h, dose level Low, time 3 day
compound,measurement,setting,value
CCN1CCCC1CNC(=O)c1cc(S(N)(=O)=O)ccc1OC (centres undefined) [SULPIRIDE],ABSOLUTE BASOPHIL,[1],0 CELLS/uL
same,ABSOLUTE EOSINOPHIL,[1],0 CELLS/uL
same,ABSOLUTE LYMPHOCYTE,[1],12269.67 CELLS/uL
same,ABSOLUTE MONOCYTE,[1],160.33 CELLS/uL
same,ABSOLUTE SEGMENTED NEUTROPHIL,[1],970 CELLS/uL
same,BASOPHIL,[1],0%
same,EOSINOPHIL,[1],0%
same,ERYTHROCYTE COUNT,[1],5.76 x10E6/uL
same,HEMATOCRIT,[1],36.57%
same,HEMOGLOBIN,[1],14.22 G/DL
same,LEUKOCYTE COUNT,[1],13.4 x10E3/uL
same,LYMPHOCYTE,[1],91.67%
same,MEAN CORPUSCULAR HEMOGLOBIN,[1],24.67 pg
same,MEAN CORPUSCULAR HEMOGLOBIN CONCENTRATION,[1],38.85 G/DL
same,MEAN CORPUSCULAR VOLUME,[1],63.52 fL
same,MONOCYTE,[1],1.17%
same,NEUTROPHIL,[1],7.17%
same,NUCLEATED RED BLOOD CELLS,[1],0.33 /100WBC
same,PLATELET COUNT,[1],1250.83 x10E3/uL
same,ALANINE AMINOTRANSFERASE,[1],49.17 u/L
same,ALBUMIN,[1],4.33 G/DL
same,ALKALINE PHOSPHATASE,[1],378.5 u/L
same,ASPARTATE AMINOTRANSFERASE,[1],82.17 u/L
same,BLOOD UREA NITROGEN,[1],15 mg/dL
same,CARBON DIOXIDE,[1],34.33 mmol/L
same,CHLORIDE,[1],99.17 MEQ/L
same,CHOLESTEROL,[1],71.17 mg/dL
same,CREATINE PHOSPHOKINASE,[1],258.67 u/L
same,CREATININE,[1],0.18 mg/dL
same,GLUCOSE,[1],142.67 mg/dL
same,LACTATE DEHYDROGENASE,[1],154.33 u/L
same,LIPASE,[1],9 u/L
same,PHOSPHORUS,[1],11.67 mg/dL
same,POTASSIUM,[1],7.13 MEQ/L
same,SODIUM,[1],142.22 MEQ/L
same,TOTAL BILIRUBIN,[1],0.18 mg/dL
same,TOTAL PROTEIN,[1],5.77 G/DL
same,URIC ACID,[1],1.55 mg/dL
same,ABSOLUTE BASOPHIL,[2],0 CELLS/uL
same,ABSOLUTE EOSINOPHIL,[2],23.33 CELLS/uL
same,ABSOLUTE LYMPHOCYTE,[2],14943.67 CELLS/uL
same,ABSOLUTE MONOCYTE,[2],32 CELLS/uL
same,ABSOLUTE SEGMENTED NEUTROPHIL,[2],1084.33 CELLS/uL
same,BASOPHIL,[2],0%
same,EOSINOPHIL,[2],0.17%
same,ERYTHROCYTE COUNT,[2],5.71 x10E6/uL
same,HEMATOCRIT,[2],35.28%
same,HEMOGLOBIN,[2],14.27 G/DL
same,LEUKOCYTE COUNT,[2],16.08 x10E3/uL
same,LYMPHOCYTE,[2],93%
same,MEAN CORPUSCULAR HEMOGLOBIN,[2],25.02 pg
same,MEAN CORPUSCULAR HEMOGLOBIN CONCENTRATION,[2],40.43 G/DL
same,MEAN CORPUSCULAR VOLUME,[2],61.82 fL
same,MONOCYTE,[2],0.17%
same,NEUTROPHIL,[2],6.67%
same,NUCLEATED RED BLOOD CELLS,[2],0.33 /100WBC
same,PLATELET COUNT,[2],1274 x10E3/uL
same,ALANINE AMINOTRANSFERASE,[2],54.17 u/L
same,ALBUMIN,[2],4.22 G/DL
same,ALKALINE PHOSPHATASE,[2],373.17 u/L
same,ASPARTATE AMINOTRANSFERASE,[2],81.83 u/L
same,BLOOD UREA NITROGEN,[2],16.67 mg/dL
same,CARBON DIOXIDE,[2],30.33 mmol/L
same,CHLORIDE,[2],99 MEQ/L
same,CHOLESTEROL,[2],71 mg/dL
same,CREATINE PHOSPHOKINASE,[2],273.5 u/L
same,CREATININE,[2],0.22 mg/dL
same,GLUCOSE,[2],141.83 mg/dL
same,LACTATE DEHYDROGENASE,[2],153.67 u/L
same,LIPASE,[2],10.33 u/L
same,PHOSPHORUS,[2],11.38 mg/dL
same,POTASSIUM,[2],7.08 MEQ/L
same,SODIUM,[2],142.75 MEQ/L
same,TOTAL BILIRUBIN,[2],0.18 mg/dL
same,TOTAL PROTEIN,[2],6.1 G/DL
same,URIC ACID,[2],1.67 mg/dL
same,ABSOLUTE BASOPHIL,[3],0 CELLS/uL
same,ABSOLUTE EOSINOPHIL,[3],0 CELLS/uL
same,ABSOLUTE LYMPHOCYTE,[3],13264 CELLS/uL
same,ABSOLUTE MONOCYTE,[3],100 CELLS/uL
same,ABSOLUTE SEGMENTED NEUTROPHIL,[3],869.33 CELLS/uL
same,BASOPHIL,[3],0%
same,EOSINOPHIL,[3],0%
same,ERYTHROCYTE COUNT,[3],5.78 x10E6/uL
same,HEMATOCRIT,[3],37.4%
same,HEMOGLOBIN,[3],14.93 G/DL
same,LEUKOCYTE COUNT,[3],14.23 x10E3/uL
same,LYMPHOCYTE,[3],93.33%
same,MEAN CORPUSCULAR HEMOGLOBIN,[3],25.87 pg
same,MEAN CORPUSCULAR HEMOGLOBIN CONCENTRATION,[3],39.97 G/DL
same,MEAN CORPUSCULAR VOLUME,[3],64.7 fL
same,MONOCYTE,[3],0.67%
same,NEUTROPHIL,[3],6%
same,NUCLEATED RED BLOOD CELLS,[3],0 /100WBC
same,PLATELET COUNT,[3],1265.67 x10E3/uL
same,ALANINE AMINOTRANSFERASE,[3],40.33 u/L
same,ALBUMIN,[3],4.83 G/DL
same,ALKALINE PHOSPHATASE,[3],335 u/L
same,ASPARTATE AMINOTRANSFERASE,[3],84.67 u/L
same,BLOOD UREA NITROGEN,[3],20.33 mg/dL
same,CARBON DIOXIDE,[3],26 mmol/L
same,CHLORIDE,[3],104 MEQ/L
same,CHOLESTEROL,[3],78.67 mg/dL
same,CREATINE PHOSPHOKINASE,[3],305 u/L
same,CREATININE,[3],0.26 mg/dL
same,GLUCOSE,[3],178.33 mg/dL
same,LACTATE DEHYDROGENASE,[3],183 u/L
same,LIPASE,[3],11.67 u/L
same,PHOSPHORUS,[3],15 mg/dL
same,POTASSIUM,[3],6.9 MEQ/L
same,SODIUM,[3],149.67 MEQ/L
same,TOTAL BILIRUBIN,[3],0.13 mg/dL
same,TOTAL PROTEIN,[3],6.7 G/DL
same,URIC ACID,[3],2.27 mg/dL
